In patent publication US20020026052A1, “3-cyanoquinolines, 3-cyano-1,6-naphthyridines, and 3-cyano-1,7-naphthyridines as protein kinase inhibitors” (American Home Products Corporation, priority 2000, published 2002):
Values joined by “and” are separate entries in the source; they are usually repeats but may differ in a detail not shown here. Equal entries are not always repeated.

What was measured:
[1] = system: Human adenocarcinoma cell line LoVo; test: Cell Based Screen for Inhibitors of Raf Kinase, LoVo; conditions: four days incubation, SRB
Experimental: Cell Based Screen for Inhibitors of Raf Kinase.
Cell Lines: Human adenocarcinoma cell line LoVo which is known to be growth inhibited by low nM concentrations of a reference standard inhibitor of Ras and human adenocarcinoma cell line CaCo-2, which is known to be growth resistant to the same reference compound. Cell Media: RPMI 1640 with 10% Fetal Bovine Serum supplemented with L-glutamine and Pennicilin/Streptomycin. Compounds: Supplied usually as a 10 mM stock in 100% DMSO. Normal Saline: 150 mM NaCl Trichloroacetic Acid (TCA): 50% (w/v) in water Sulforhodamine B (SRB): 0.4% (w/v) in 1% Acetic Acid Tris Base: 10 mM in water
Cells are plated at 2000 cells per well for cell line LoVo and 1500 cells for cell line CaCo-2 in 96 well plates. Cells are plated in media (200 μl) and allowed to adhere overnight at 37 ° C. At 24 hours post plating, compounds are added directly at a volume of 0.5 μl. For the qualitative screen (compounds screened at 25 μM) compound is added directly to cells. For the quantitative screen, compound is first diluted in DMSO to generate concentrations of compound or reference standard of: 1, 5, 10 and 25 μM. It is advisable to make the dilutions in an identical 96 well plate so that compounds may be added using a multichannel micropipettor set at 0.5 μl. The cells are then incubated for four days after which the media is removed using a 12 well manifold by first tipping the plate forward at a 45 degree angle and then inserting the manifold in an upright orientation to prevent the ti
of the manifold from disturbing cells at the bottom of the plate. 200 μl of normal saline is then added to each well using an 8 well multichannel pipettor, followed by the careful addition of 50 μl of 50% TCA. The plates are then incubated for 2 hours at 4 ° C, after which the supernatant is removed using the same technique as above and the plated washed twice with 200 ul water. The plates are then air dried and 50 μl of SRB stock solution is carefully added so that the entire bottom of each well is covered. This again may be used using an 8 well multichannel pipettor. The SRB is incubated with fixed cells for 15 minutes at room temperature after which the SRB is removed with the manifold as described above and the plates washed twice with 350 μl of 1% acetic acid per well each time.The plates are then air dried after which the bound SRB is released from protein by the addition of 200 µl of Tris base. Resolubilizing the SRB is aided by placing the plates on a rotator for 15-30 minutes. The absorbance of each well is determined at 550 or 562 nm using a microtiter plate reader.
Each compound or dilution thereof is performed in triplicate. Outliers are identified by visual inspection of the data. Each plate should have a “0” control (vehicle only). […] Quantitative Assay: A standard curve is constructed by plotting the concentration of compound against the average absorbance calculated at that concentration. A curve is plotted and the concentration at which the curve passes through the 50% the absorbance mark seen in the “0” control well is the IC50 calculated for that compound. Multiple entries for a given compound indicate that it was tested multiple times.

Src = Src (Homo sapiens, UniProt P12931); test: c-Src Kinase Assay (ELISA); format: biochemical
Experimental: Inhibitors of Src (partially purified preparation purchased from Upstate Biotechnologies) tyrosine kinase activity are analyzed in an ELISA format. […] Horseradish Peroxidase (HRP)-conjugated anti-phosphotyrosine is used to detect phosphorylated peptide via a color reaction. Conditions recommended by the manufacturer are employed.
Reaction conditions: Five microliter aliquots of each compound prepared fresh at the time of the assay are added as a solution in lOmM HEPES pH 7.5, 10% DMSO to the reaction well. Thirty-five microliters of reaction mix containing Src, buffer and peptide/bovine serum albumin mix are added to the compound wells and incubated at 30° C. for 10 minutes (reaction buffer: 5 OmM TrisHCI pH 7.5, l0 mM MgCl2, O.lmM EGTA, 0.5 mM Na3 VO4)-1H-. The reaction is started by addition of 10 microliters of ATP, incubated at 30° C. for 1 hour, and stopped by addition of 20 microliters of 0.5 M EDTA. The reaction mixture with the phosphorylated peptide is then transferred to a streptavidin-coated microtiter plate (provided in the kit) and allowed to bind for 20 minutes. IUnbound peptide and reaction mixture is decanted and the plate is washed with PBS six times. HRP-conjugated phosphotyrosine antibody supplied in the kit is incubated with the plate for one hour, then decanted. The plate is again washed with PBS six times.
Activity is determined as % inhibition as calculated by the formula: (1−Abs/Abs(max) ) ×100=% inhibition.

[2] = target: Rat2 fibroblasts stably transformed with v-Src/Hu c-Src fusion gene (Homo sapiens, UniProt P12931, cells depend on it, form not given); test: Anchorage Independent Src-transformed Fibroblast Proliferation Assay; format: cell-based, Rat; conditions: suspension growth, MTS reagent on Day 5; read-out: anch-indep src-tx fib IC50
Experimental: Anchorage Independent Src-transformed Fibroblast Proliferation Assay
Rat2 fibroblasts stably transformed with a plasmid containing a CMV promotor controlled v-Src/Hu c-Src fusion gene in which the catalytic domain of human c-Src was inserted in place of the v-Src catalytic domain in the v-Src gene are used for the measurement of src dependent suspension growth. […] Multiple entries for a given compound indicate that it was tested multiple times.

Raf1 (c-Raf) = target: T1, Raf1 (c-Raf) (Homo sapiens, UniProt P04049); test: Raf1 Kinase Cascade Assay; format: biochemical
T1 construct: Sf9 insect cell lysate containing full length 6 his-tagged recombinant human c—Raf; 6His; host or cells: Sf9 insect cells (c-Raf, used as lysate); E. coli (GST-MEK1, GST-MAPK)
Experimental: Raf1 Kinase Cascade Assay Procedure
(Specific Activity: ˜200 U/ml). Human Non-active Mek-1—GST and human GST-MAP kinase (recombinant proteins produced in E. coli).
Stock Solutions Raf Assay:
Assay Dilution Buffer (ADB): 2 OmM MOPS, pH 7.2, 25 mM B-glycerol phosphate, mM EGTA, 1 mM sodium orthovanadate, 1 mM dithiothreitol. Magnesium/ATP Cocktail: 500 AM cold ATP and 75 mM magnesium chloride in ADB.
Active Kinase: Human Active c—Raf: Use at 0.4 U per assay point. Non-active GST-MEK1: Use at 0.1, ug per assay point. Non-active GST-p42 MAP Kinase: Use at 1.0 tg per assay point.
TBST—Tris (50 mM, pH 7.5)-1H-, NaCl (150 mM), Tween-20 (0.05%) Superblock (Pierce) Anti—GST Ab (Pharmacia) Anti-Phospho MAPK (Sigma) Anti-Mouse Ab/Europium conjugate (Wallac)
Assay Procedure: First Stage: c—Raf Dependent Activation of GST-MEK and GST-MAPK Add […] of ADB per assay (i.e. per well of a 96 well plate) Add 10 ml of 0.5 mM cold ATP and 75 mM magnesium chloride in ADB. Add 2 ml of c—Raf (0.4 U/assay), in conjunction with 1.6 ml non-active MEKI (0.4 mg/assay). Add 4 ml of non-active GST-p42 MAP Kinase (1.0 mg/assay). Incubate for 60 minutes at 30° C. in a shaking incubator. Transfer this mixture to an anti—GST Ab coated 96 well plate (Nunc Immunosorb plates coated o/n with a—GST, then blocked with Pierce Superblock). Incubate for 60 minutes at 30° C. in a shaking incubator Wash 3×with TBST, add Anti-Phospho MAPK (Sigma) (1:3000)-1H-Incubate for 60 minutes at 30° C. in a shaking incubator Wash 3×with TBST, add Anti-Mouse Ab/Europium conjugate (Wallac) (1:500)-1H-Incubate for 60 minutes at 30° C. in a shaking incubator Wash 3×with TBST, Read plates in Wallac Victor model Plate Reader. Collect data analyze in Excel for single point and IC50 determinations.
IC50 determinations - done on compounds from single point assays with >80% inhibition. Typically Raf-1 assay is run at compound concentrations from 10 μM to 30 nM in half log dilutions. (% inhibition is determined for each compound concentration).

T1 sequence (P04049 whole entry): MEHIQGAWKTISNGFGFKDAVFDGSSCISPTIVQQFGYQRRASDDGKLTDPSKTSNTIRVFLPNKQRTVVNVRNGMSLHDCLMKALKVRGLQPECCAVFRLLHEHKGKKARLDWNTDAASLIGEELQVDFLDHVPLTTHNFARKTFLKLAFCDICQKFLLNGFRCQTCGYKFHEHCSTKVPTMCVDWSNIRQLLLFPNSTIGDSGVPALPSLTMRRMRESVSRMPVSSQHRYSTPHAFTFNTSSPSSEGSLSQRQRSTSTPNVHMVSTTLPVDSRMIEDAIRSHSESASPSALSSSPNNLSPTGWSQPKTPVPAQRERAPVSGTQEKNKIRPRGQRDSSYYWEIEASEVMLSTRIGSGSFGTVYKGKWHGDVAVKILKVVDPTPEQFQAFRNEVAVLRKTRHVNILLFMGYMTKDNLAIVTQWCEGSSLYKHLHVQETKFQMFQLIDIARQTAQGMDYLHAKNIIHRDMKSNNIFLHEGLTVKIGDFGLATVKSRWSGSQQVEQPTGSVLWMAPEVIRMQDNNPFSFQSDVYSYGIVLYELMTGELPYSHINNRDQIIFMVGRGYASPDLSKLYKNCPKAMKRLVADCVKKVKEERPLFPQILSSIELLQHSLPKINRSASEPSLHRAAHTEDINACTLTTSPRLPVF

With `Cn1ccnc1Sc1ccc(Nc2c(C#N)cnc3cc(-c4ccc(CN5CCOCC5)cn4)ccc23)cc1Cl` [Example 187, 4-{3-Chloro-4-[(1-methyl-1H-inidazol-2-yl)sulfanyl]anilino}-7-[5-(4-morpholinylmethyl)-2-pyridinyl]-3-quinolinecarbonitrile] the IC50 [1] was 9 nM and the melting point was 225 to 227 °C.
For `COc1cc(Nc2c(C#N)cnc3cc(-c4ccc(C=O)s4)ccc23)c(Cl)cc1Cl` [Example 52, 4-(2,4-dichloro-5-methoxyanilino)-7-(5-formyl-2-thienyl)-3-quinolinecarbonitrile], the melting point was > 300 °C (dec.) and the IC50 (Src) was 11 nM.
With “4-(2,4-Dichloro-5-methoxyanilino)-7-(3-formyl)-3-quinolinecarbonitrile [Example 112]” the GI50 [2] was 7300 nM and the IC50 (Src) was 36 nM.
“(E)-3-[3-Cyano-4-(2,4-dichloro-5-methoxyanilino)-7-quinolinyl]-2-propenoic acid [Example 99]” showed a GI50 [2] of over 10000 nM and an IC50 (Src) of 44 nM.
In the case of `COc1cc(Nc2c(C#N)cnc3cc(-n4cccc4CN(C)C)ccc23)c(Cl)cc1Cl` [Example 93], the melting point is reported as 157 to 158 °C, the GI50 [2] is reported as over 10000 nM and the IC50 (Src) is reported as 610 nM and 680 nM.
`COc1cc(Nc2c(C#N)cnc3cc(-c4ccc(CNCCc5ccccn5)o4)ccc23)c(Cl)cc1Cl` [Example 74, 4-(2,4-Dichloro-5-methoxyanilino)-7-[5-({[2-(2-pyridinyl)ethyl]amino}methyl)-2-furyl]-3-quinolinecarbonitrile] showed a melting point of 130 to 135 °C, a GI50 [2] of 1400 nM and an IC50 (Src) of 40 nM.
Molecule `COc1cc(Nc2c(C#N)cnc3cc(-c4cc5ccccc5s4)ccc23)c(Cl)cc1Cl` [Example 120, 7-(1-benzothien-2-yl)-4-(2,4-dichloro-5-methoxyanilino)-3-quinolinecarbonitrile] has a melting point of 269 to 270 °C, a GI50 [2] of over 10000 nM and an IC50 (Src) of 170 nM.
In the case of `COc1cc(Nc2c(C#N)cnc3cc(-c4ccc(-c5nnn[nH]5)cc4)ccc23)c(Cl)cc1Cl` [Example 105], the GI50 [2] is reported as > 10000 nM and 5900 nM and the IC50 (Src) is reported as 10 nM.
With “(1-{4-[3-Cyano-4-(2,4-dichloro-5-methoxyanilino)-7-quinolinyl]benzyl }-4-piperidinyl) acetic acid [Example 100]” the GI50 [2] was 340 nM and 400 nM and the IC50 (Src) was 0.57 nM.
`COc1cc(Nc2c(C#N)cnc3cc(/C=C/c4ccccn4)ccc23)c(Cl)cc1Cl` [Example 3, 4-(2,4-Dichloro-S-methoxyanilino)-7-[(E)-2-(2-pyrdinyl)ethenyl]-3-quinoline-carbonitrile] showed an IC50 (Src) of 11 nM.
In the case of `COc1cc(Nc2c(C#N)cnc3cc(-c4ccc(-c5ccccc5)cc4)ccc23)c(Cl)cc1Cl` [Example 165, 7-[1,1-Biphenyl]-4-yl-4-(2,4-dichloro-5-methoxyanilino)-3-quinolinecarbonitile], the GI50 [2] is reported as over 10000 nM and the “ELISA c-src % inhibition” value (Src; at 10 nM) is reported as 28% at 10 nM.
`N#Cc1cnc2cc(-c3csc(CN4CCCCC4)c3)ccc2c1Nc1ccc(Sc2ccccc2)c(Cl)c1` [Example 462, 4-{[3-chloro-4-(phenylsulfanyl)phenyl]amino}-7-[5-(1-piperidinylmethyl)-3-thienyl]-3-quinolinecarbonitrile] showed an IC50 (Raf1 (c-Raf)) of 50 nM.
For `COc1cc(Nc2c(C#N)cnc3cc(-c4ccc(CN5CCC(O)CC5)s4)ccc23)c(Cl)cc1Cl` [Example 89, 4-(2,4-dichloro-5-methoxyanilino)-7-{5-[(4-hydroxy-1-piperidinyl)methyl]-2-thienyl}-3-quinolinecarbonitrile], the GI50 [2] was 90 nM and the IC50 (Src) was 0.52 nM and 0.84 nM.
In the case of `Cn1ccnc1Sc1ccc(Nc2c(C#N)cnc3cc(-c4ccc(CN5CCCCC5)o4)ccc23)cc1Cl` [Example 155, 4-{3-Chloro-4-[(1-methyl-1H-imidazol-2-yl)sulfanyl]anilino}-7-[5-(1-piperidinylmethyl)-2-furyl]-3-quinolinecarbonitrile], the IC50 (Raf1 (c-Raf)) is reported as 20 nM and the melting point is reported as 214 to 215 °C.
In the case of “4-[(2,4-Dichloro-5-methoxyphenyl) amino]-7-[4-(4-morpholinyl) phenyl]-3-quinolinecarbonitrile [Example 128]”, the GI50 [2] is reported as 640 nM and the IC50 (Src) is reported as 3.2 nM.
Molecule `COc1cc(Nc2c(C#N)cnc3cc(C#CCN4CCOCC4)ccc23)c(Cl)cc1Cl` [Example 146, 4-(2 ,4-Dichloro-5-methoxyanilino)-7-[3-(4-morpholinyl)-1-propynyl]-3-quinolinecarbonitrile] has a melting point of 190 to 191 °C, a GI50 [2] of 6500 nM and an IC50 (Src) of 22 nM.
In the case of `COc1cc(Nc2c(C#N)cnc3cc(-n4cccc4)c(OC)cc23)c(Cl)cc1Cl` [Example 59, 4-(2,4-Dichloro-5-methoxyanilino)-6-methoxy-7-(1H-pyrrol-1-yl)-3-quinolinecarbonitrile], the melting point is reported as 229 to 230 °C and the IC50 (Src) is reported as 12 nM and 15 nM.
